Experiment [1] has as its target T1, Voltage-gated inwardly rectifying potassium channel KCNH2 (Homo sapiens, UniProt Q12809). Briefly: K+ channel blocking activity in Chinese hamster ovary cells expressing HERG Kv11.1. The format is functional, cell-based.
Experiment [2] addresses T1, Voltage-gated inwardly rectifying potassium channel KCNH2. Briefly: (§1) K+ channel blocking activity in human embryonic kidney cells expressing HERG Kv11.1.
The target is the same in experiment [3]. The description is as §1. The format is functional, cell-based.

The structures appear in SMILES notation.

T1 sequence (Q12809 whole entry): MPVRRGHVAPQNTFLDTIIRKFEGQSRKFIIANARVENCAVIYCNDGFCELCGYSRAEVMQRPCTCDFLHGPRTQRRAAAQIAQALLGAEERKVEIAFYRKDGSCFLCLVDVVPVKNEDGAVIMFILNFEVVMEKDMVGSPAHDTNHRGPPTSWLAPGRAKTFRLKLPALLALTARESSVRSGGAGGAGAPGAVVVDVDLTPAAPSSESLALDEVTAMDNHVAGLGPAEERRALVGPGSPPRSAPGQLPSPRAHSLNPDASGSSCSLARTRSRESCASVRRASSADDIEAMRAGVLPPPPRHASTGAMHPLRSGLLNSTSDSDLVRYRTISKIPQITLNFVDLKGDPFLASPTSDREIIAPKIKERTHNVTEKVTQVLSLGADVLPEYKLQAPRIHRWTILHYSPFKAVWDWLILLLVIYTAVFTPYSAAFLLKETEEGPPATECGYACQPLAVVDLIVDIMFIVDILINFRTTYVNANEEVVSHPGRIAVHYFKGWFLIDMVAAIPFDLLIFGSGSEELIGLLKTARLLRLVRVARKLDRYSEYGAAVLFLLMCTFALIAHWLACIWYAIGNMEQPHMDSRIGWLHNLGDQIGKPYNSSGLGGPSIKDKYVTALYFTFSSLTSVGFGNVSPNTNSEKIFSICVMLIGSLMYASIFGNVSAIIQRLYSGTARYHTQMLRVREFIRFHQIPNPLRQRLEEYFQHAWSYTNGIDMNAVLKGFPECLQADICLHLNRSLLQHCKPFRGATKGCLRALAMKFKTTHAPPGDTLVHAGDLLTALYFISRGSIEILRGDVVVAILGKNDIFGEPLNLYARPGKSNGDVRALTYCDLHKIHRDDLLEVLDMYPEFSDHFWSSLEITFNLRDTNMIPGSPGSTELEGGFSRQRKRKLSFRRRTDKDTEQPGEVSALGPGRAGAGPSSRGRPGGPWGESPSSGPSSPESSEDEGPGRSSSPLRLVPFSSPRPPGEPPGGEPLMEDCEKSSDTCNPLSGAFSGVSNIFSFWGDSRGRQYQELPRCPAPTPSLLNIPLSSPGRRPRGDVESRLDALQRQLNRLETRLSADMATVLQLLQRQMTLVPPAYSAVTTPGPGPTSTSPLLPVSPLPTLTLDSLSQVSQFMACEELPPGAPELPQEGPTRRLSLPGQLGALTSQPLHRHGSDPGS

Take `CN1CCN(CCCCN2C(=O)CN(/N=C/c3ccc(-c4ccc(Cl)cc4)o3)C2=O)CC1` [AZIMILIDE]: half-maximal inhibition in experiment [1] (IC50) required 0.56 µM.
`COc1c(N2CCNC(C)C2)c(F)cc2c(=O)c(C(=O)O)cn(C3CC3)c12` (centres undefined) [GATIFLOXACIN]: inhibition in experiment [1] was half-maximal at 130 µM (IC50).
On to `CN(c1nccc(=O)[nH]1)C1CCN(c2nc3ccccc3n2Cc2ccc(F)cc2)CC1` [MIZOLASTINE], for which the IC50 in experiment [2] was found to be 0.35 µM.
`C[C@@H]1CN(c2c(F)c(N)c3c(=O)c(C(=O)O)cn(C4CC4)c3c2F)C[C@H](C)N1` [SPARFLOXACIN] registered an IC50 in experiment [3] of 34.4 µM.

Source of the values: ChEMBL document CHEMBL1135758, “Toward a pharmacophore for drugs inducing the long QT syndrome: insights from a CoMFA study of HERG K(+) channel blockers” (J Med Chem, 2002).
